Laboratory results: EP4813991A1 (iLeadBMS Co., Ltd., priority 2023, dated 2025)
pIC50: −log10 of the molar value. Like-named read-outs stand apart in the source and are kept apart here.

Experiments:
CDK12 [1] = target: T1, CDK12 (Homo sapiens, UniProt Q9NYV4); experiment: Cellular CDK12 inhibitory activity assay (Ser2 phosphorylation of RNA polymerase II subunit B1 CTD in MDA-MB-231 cells); type: cell-based; design: using MDA-MB-231 breast cancer cells; endogenous in cells; host or cells: MDA-MB-231; details: MDA-MB-231 cells, 6 hours treatment; read-out: pRpbl CTD S2 IC50
Summary of the method: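 MDA-MB-231 cells in L-15 with 10 % FBS were treated with compound at 9 concentrations for 6 h at 37 °C, 0 % CO2. In-Cell Western read phospho-Ser2 and total RNA polymerase II CTD on a Li-COR Odyssey; IC50 from 4-parameter dose-response fit.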

[2] = tested on: MDA-MB-231 breast cancer cells; experiment: Proliferation inhibitory activity assay against MDA-MB-231 breast cancer cells; type: cell-based; details: Homo sapiens, 72 hours, CellTiter Glo, relative IC50
Summary of the method: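 Cells grown in L-15 with 10% FBS at 37 °C, 0% CO2, then exposed next day to compounds at 9 concentrations (DMSO vehicle) for 72 h. Viability read by CellTiter Glo luminescence; relative IC50 from dose-response curve fit.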

CDK1 = CDK1 (Homo sapiens, UniProt P06493); experiment: CDK1 kinase inhibitory activity assay and selectivity over CDK12; type: biochemical; details: for pIC50: kinase reaction 120 minutes, 33P-gamma-ATP; for CDK1/CDK12: ratio of CDK1 IC50 to CDK12 IC50
Description: (§1) Before initiating the CDK1 and CDK2 kinase reactions, each Example compound was dissolved and diluted in DMSO as a solvent across 9 concentration ranges at room temperature. The diluted solutions were then incubated with a mixture of kinase and substrate (and cofactors, if required) for 20 minutes. Next, radioisotope-labeled ATP (^33P-gamma-ATP) was added to proceed with the kinase reaction at room temperature for 120 minutes. After the reaction was completed, the reaction mixture was transferred to a filter paper that binds the radioisotope-labeled catalytic product (^33P-substrate). Unreacted ^33P-ATP was removed by washing with 0.75 % phosphoric acid, and then the radioactive phosphorylated substrate remaining on the filter paper was measured. Kinase activity data were expressed as a percentage of the kinase activity remaining in the test sample compared to a DMSO control group. The half-maximal inhibitory concentration (IC50) for each kinase was calculated using Prism software.
(§2) The CDK1 and CDK2 kinase inhibitory activities of the Example compounds measured by the above method were evaluated according to the following criteria, and the results are presented in Table 14.

CDK12 [3] = target: T1, CDK12; experiment: CDK12 kinase inhibitory activity assay (33P-ATP filter binding); type: biochemical
Summary of the method: (§3)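 Radiometric filter-binding read-out: after 20 min compound–enzyme/substrate pre-incubation across 9 concentrations, reaction started with ^33P-γ-ATP and run 120 min at room temperature. Filter-bound ^33P-substrate measured after 0.75 % phosphoric acid washes; remaining activity versus DMSO gives IC50.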

CDK13 = CDK13 (Homo sapiens, UniProt Q14004); experiment: CDK13 kinase inhibitory activity assay (33P-ATP filter binding); type: biochemical
Summary of the method: as §3

CDK2 = CDK2 (Homo sapiens, UniProt P24941); experiment: CDK2 kinase inhibitory activity assay and selectivity over CDK12; type: biochemical; details: for pIC50: kinase reaction 120 minutes, 33P-gamma-ATP; for CDK2/CDK12: ratio of CDK2 IC50 to CDK12 IC50
Description: as §1, §2

[4] = kinase reaction 120 minutes, 33P-gamma-ATP, read-out: CDK12 IC50
[5] = kinase reaction 120 minutes, 33P-gamma-ATP, read-out: CDK13 IC50

T1 sequence (Q9NYV4 whole entry, species assumed): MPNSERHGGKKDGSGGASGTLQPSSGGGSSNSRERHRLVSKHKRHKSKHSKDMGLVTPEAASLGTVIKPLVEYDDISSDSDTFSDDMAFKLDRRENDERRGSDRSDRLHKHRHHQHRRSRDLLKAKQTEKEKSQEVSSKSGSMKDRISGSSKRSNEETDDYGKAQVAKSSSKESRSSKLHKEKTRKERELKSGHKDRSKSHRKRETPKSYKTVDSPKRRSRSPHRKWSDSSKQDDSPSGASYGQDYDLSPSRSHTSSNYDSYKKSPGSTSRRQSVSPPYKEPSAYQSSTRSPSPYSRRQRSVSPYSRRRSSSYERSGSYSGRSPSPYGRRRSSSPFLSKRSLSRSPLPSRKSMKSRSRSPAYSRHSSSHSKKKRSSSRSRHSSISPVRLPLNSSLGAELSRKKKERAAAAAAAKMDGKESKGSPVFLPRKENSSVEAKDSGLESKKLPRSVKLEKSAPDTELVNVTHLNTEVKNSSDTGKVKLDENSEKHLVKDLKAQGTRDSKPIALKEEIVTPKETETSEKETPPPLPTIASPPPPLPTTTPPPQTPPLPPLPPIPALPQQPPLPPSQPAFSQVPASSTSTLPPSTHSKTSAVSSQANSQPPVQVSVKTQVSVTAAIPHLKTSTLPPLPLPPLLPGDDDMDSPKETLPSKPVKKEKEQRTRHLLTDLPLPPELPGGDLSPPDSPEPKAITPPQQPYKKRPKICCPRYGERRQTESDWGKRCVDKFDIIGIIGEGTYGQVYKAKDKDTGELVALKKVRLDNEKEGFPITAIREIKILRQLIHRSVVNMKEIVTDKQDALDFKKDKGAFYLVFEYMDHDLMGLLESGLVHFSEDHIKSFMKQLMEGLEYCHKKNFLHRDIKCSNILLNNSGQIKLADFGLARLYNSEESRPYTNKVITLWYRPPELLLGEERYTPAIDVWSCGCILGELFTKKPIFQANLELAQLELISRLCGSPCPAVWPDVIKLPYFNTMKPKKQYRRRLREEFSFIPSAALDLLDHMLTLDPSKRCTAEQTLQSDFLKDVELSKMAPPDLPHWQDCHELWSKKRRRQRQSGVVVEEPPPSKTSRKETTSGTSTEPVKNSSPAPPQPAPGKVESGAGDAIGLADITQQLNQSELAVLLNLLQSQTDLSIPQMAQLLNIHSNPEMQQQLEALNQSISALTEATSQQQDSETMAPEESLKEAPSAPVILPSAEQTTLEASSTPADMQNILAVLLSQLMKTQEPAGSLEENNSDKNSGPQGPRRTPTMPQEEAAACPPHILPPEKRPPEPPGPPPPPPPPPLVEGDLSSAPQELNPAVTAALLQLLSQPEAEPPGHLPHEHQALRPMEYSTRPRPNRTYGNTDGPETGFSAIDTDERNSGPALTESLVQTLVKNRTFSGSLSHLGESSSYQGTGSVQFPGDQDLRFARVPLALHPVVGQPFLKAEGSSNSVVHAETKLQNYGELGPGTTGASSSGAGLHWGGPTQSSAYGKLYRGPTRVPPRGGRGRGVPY
T1 sequence (O75909 whole entry partner, species assumed): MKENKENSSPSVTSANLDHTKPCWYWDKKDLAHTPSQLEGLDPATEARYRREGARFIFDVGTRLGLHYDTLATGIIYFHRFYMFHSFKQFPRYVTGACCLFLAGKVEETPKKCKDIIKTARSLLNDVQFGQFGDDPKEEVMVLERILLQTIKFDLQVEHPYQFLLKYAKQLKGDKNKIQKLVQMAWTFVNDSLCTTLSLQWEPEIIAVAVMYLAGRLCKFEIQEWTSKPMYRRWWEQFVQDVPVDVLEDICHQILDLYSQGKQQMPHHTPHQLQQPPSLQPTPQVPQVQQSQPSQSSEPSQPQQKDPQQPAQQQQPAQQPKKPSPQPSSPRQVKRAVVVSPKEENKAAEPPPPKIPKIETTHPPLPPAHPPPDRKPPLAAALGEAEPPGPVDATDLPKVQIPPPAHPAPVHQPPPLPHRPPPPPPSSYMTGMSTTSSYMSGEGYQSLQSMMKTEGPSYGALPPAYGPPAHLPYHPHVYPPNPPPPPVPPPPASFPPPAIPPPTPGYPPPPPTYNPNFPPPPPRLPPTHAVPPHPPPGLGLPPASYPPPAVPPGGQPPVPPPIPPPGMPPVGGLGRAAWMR
Chain of CDK13 (Q14004 whole entry, species assumed): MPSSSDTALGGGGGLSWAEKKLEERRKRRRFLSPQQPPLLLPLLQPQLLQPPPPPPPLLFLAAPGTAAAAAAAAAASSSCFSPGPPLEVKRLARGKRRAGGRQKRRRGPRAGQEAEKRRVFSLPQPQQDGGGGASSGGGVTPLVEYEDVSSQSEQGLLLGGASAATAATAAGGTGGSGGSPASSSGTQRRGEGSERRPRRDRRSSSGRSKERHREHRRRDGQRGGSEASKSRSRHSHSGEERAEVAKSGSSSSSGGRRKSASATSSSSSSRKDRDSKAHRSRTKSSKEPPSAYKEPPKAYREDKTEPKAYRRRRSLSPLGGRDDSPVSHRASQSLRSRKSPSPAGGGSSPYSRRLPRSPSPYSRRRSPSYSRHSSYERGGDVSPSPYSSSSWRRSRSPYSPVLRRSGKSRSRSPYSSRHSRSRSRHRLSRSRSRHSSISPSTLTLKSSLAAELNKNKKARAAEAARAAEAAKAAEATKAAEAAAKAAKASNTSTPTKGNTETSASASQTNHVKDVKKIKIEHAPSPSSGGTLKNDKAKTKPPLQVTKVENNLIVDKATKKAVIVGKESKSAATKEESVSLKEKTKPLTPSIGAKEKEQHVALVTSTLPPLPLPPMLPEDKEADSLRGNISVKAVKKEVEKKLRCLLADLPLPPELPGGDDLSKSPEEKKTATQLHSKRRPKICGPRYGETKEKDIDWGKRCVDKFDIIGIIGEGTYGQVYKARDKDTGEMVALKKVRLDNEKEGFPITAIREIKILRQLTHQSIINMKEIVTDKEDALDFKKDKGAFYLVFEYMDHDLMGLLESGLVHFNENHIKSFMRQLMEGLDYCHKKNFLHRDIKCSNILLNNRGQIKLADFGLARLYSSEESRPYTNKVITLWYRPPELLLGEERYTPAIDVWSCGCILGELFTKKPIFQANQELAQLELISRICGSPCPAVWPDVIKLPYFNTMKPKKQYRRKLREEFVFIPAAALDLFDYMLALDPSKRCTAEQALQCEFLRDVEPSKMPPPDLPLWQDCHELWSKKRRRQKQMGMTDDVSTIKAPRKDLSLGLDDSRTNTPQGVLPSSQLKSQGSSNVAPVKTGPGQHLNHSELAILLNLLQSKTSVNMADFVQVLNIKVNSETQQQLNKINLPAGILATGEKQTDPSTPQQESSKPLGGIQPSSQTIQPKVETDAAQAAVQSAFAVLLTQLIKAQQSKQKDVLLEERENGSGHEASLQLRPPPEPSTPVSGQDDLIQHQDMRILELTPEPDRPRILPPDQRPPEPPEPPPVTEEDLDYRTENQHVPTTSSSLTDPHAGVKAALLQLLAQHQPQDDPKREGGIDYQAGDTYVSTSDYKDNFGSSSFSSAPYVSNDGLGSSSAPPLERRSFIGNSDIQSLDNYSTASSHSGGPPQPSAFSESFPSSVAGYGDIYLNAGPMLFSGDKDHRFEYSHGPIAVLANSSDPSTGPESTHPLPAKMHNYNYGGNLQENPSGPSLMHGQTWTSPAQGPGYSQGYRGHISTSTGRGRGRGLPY
Chain of CDK13 (O75909 whole entry partner, species assumed): as the sequence (O75909 whole entry partner, species assumed) above
Chain of CDK1 (P06493 whole entry, species assumed): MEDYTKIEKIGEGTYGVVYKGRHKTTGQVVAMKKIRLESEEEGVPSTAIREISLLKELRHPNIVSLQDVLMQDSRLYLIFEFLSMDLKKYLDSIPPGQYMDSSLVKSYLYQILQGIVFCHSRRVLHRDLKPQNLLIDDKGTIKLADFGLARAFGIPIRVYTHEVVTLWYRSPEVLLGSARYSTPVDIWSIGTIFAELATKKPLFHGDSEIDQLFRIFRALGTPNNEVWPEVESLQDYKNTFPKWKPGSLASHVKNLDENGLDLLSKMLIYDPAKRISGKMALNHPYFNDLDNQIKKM
Chain of CDK1 (P14635 whole entry partner, species assumed): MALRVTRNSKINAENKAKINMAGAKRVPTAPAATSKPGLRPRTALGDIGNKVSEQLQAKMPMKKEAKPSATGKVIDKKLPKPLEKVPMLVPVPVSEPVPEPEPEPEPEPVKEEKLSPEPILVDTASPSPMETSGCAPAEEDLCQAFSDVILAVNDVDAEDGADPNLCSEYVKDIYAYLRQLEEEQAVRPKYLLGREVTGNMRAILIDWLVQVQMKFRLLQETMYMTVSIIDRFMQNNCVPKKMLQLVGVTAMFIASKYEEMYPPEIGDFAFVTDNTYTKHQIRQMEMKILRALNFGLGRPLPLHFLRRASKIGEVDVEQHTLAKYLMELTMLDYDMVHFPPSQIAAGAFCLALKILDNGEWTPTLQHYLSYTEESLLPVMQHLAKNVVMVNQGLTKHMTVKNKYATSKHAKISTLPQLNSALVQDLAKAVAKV

SMILES | pIC50 (CDK12 [1]) | pIC50 [2] | pIC50 (CDK1) | CDK1/CDK12 (CDK1) | pIC50 (CDK12 [3]; [4]) | pIC50 (CDK13) | pIC50 (CDK2) | CDK2/CDK12 (CDK2) | pIC50 (CDK13; [5]) | pIC50 (CDK12 [3])
Fc1ccc2nc(CNc3cc(N4C5CCC4COC5)nn4c(C(F)(F)F)cnc34)[nH]c2c1F [Example 7, 6-(3-oxa-8-azabicyclo[3.2.1]octan-8-yl)-N-((6,7-difluoro-1H-benzo[d]imidazol-2-yl)methyl)-3-(trifluoromethyl)imidazo[1,2-b]pyridazin-8-amine] | > 6.52 | ≥ 7.30 | < 6.00 | C (CDK1/CDK12 or CDK2/CDK12 ≤ 100-fold) | 6.30 to 7.00 | > 7.00 | < 6.00 | C (CDK1/CDK12 or CDK2/CDK12 ≤ 100-fold) |  | 
Fc1ccc2nc(CNc3cc(N4C5CCC4CNC5)nn4c(C(F)(F)F)cnc34)[nH]c2c1F [Example 11, 6-(3,8-diazabicyclo[3.2.1]octan-8-yl)-N-((6,7-difluoro-1H-benzo[d]imidazol-2-yl)methyl)-3-(trifluoromethyl)imidazo[1,2-b]pyridazin-8-amine] | > 6.52 | ≥ 7.30 | 6.00 to 7.00 | B (100-fold < CDK1/CDK12 or CDK2/CDK12 ≤ 500-fold) | > 7.00 |  | 6.00 to 7.00 | B (100-fold < CDK1/CDK12 or CDK2/CDK12 ≤ 500-fold) | > 7.00 | 
CN1CC2CCC(C1)N2c1cc(NCc2nc3ccc(F)c(F)c3[nH]2)c2ncc(C(F)(F)F)n2n1 [Example 13] | > 6.52 | ≥ 7.30 | < 6.00 | A (CDK1/CDK12 or CDK2/CDK12 > 500-fold) | > 7.00 |  | < 6.00 | B (100-fold < CDK1/CDK12 or CDK2/CDK12 ≤ 500-fold) | > 7.00 | 
OC1CC2CCC(C1)N2c1cc(NCc2nc3ccc(F)c(F)c3[nH]2)c2ncc(C(F)(F)F)n2n1 (stereo not drawn) [Example 14, 8-(8-(((6,7-difluoro-1H-benzo[d]imidazol-2-yl)methyl)amino)-3-(trifluoromethyl)imidazo[1,2-b]pyridazin-6-yl)-8-azabicyclo[3.2.1]octan-3-ol] | > 6.52 | ≥ 7.30 | < 6.00 | C (CDK1/CDK12 or CDK2/CDK12 ≤ 100-fold) | 6.30 to 7.00 |  | 6.00 to 7.00 | C (CDK1/CDK12 or CDK2/CDK12 ≤ 100-fold) | > 7.00 | 
OC1CN(c2cc(NCc3nc4ccc(F)c(F)c4[nH]3)c3ncc(C(F)(F)F)n3n2)C1 [Example 16, 1-(8-(((6,7-difluoro-1H-benzo[d]imidazol-2-yl)methyl)amino)-3-(trifluoromethyl)imidazo[1,2-b]pyridazin-6-yl)azetidin-3-ol] | 5.52 to 6.52 | ≥ 7.30 | < 6.00 | B (100-fold < CDK1/CDK12 or CDK2/CDK12 ≤ 500-fold) | > 7.00 |  | < 6.00 | C (CDK1/CDK12 or CDK2/CDK12 ≤ 100-fold) | > 7.00 | 
Fc1ccc2nc(CNc3cc(N4CCNCC4)nn4c(C(F)(F)F)cnc34)[nH]c2c1F [Example 17] | > 6.52 | ≥ 7.30 | < 6.00 | A (CDK1/CDK12 or CDK2/CDK12 > 500-fold) | > 7.00 |  | < 6.00 | B (100-fold < CDK1/CDK12 or CDK2/CDK12 ≤ 500-fold) | > 7.00 | 
NC1CCN(c2cc(NCc3nc4ccc(F)c(F)c4[nH]3)c3ncc(C(F)(F)F)n3n2)CC1 [Example 18] | > 6.52 | ≥ 7.30 | < 6.00 | A (CDK1/CDK12 or CDK2/CDK12 > 500-fold) | > 7.00 |  | < 6.00 | A (CDK1/CDK12 or CDK2/CDK12 > 500-fold) | > 7.00 | 
OC1CCN(c2cc(NCc3nc4ccc(F)c(F)c4[nH]3)c3ncc(C(F)(F)F)n3n2)CC1 [Example 19, 1-(8-(((6,7-difluoro-1H-benzo[d]imidazol-2-yl)methyl)amino)-3-(trifluoromethyl)imidazo[1,2-b]pyridazin-6-yl)piperidin-4-ol] | 5.52 to 6.52 | ≥ 7.30 | < 6.00 | A (CDK1/CDK12 or CDK2/CDK12 > 500-fold) | > 7.00 | > 7.00 | < 6.00 | A (CDK1/CDK12 or CDK2/CDK12 > 500-fold) |  | 
C#Cc1cnc2c(NCc3nc4ccc(F)c(F)c4[nH]3)cc(-c3cnc(N)nc3)nn12 [Example 22, 6-(2-aminopyrimidin-5-yl)-N-((6,7-difluoro-1H-benzo[d]imidazol-2-yl)methyl)-3-ethynylimidazo[1,2-b]pyridazin-8-amine] | > 6.52 | 6.30 to 7.30 | < 6.00 | A (CDK1/CDK12 or CDK2/CDK12 > 500-fold) | > 7.00 | > 7.00 | < 6.00 | A (CDK1/CDK12 or CDK2/CDK12 > 500-fold) |  | 
Fc1ccc2nc(CNc3cc(N4CCOCC4)nn4c(C5CC5)cnc34)[nH]c2c1F [Example 23, 3-cyclopropyl-N-((6,7-difluoro-lH-benzo[d]imidazol-2-yl)methyl)-6-morpholinoimidazo[1,2-b]pyridazin-8-amine] | 5.52 to 6.52 | 6.30 to 7.30 | < 6.00 |  |  |  | < 6.00 |  | > 7.00 | 6.30 to 7.00
Nc1ncc(-c2cc(NCc3nc4ccc(F)c(F)c4[nH]3)c3ncc(C(F)(F)F)n3n2)cn1 [Example 35] | > 6.52 | ≥ 7.30 | < 6.00 | A (CDK1/CDK12 or CDK2/CDK12 > 500-fold) | > 7.00 |  | < 6.00 | B (100-fold < CDK1/CDK12 or CDK2/CDK12 ≤ 500-fold) | > 7.00 | 
OC1CN(c2cc(NCc3nc4cc(Cl)c(Cl)cc4[nH]3)c3ncc(C(F)(F)F)n3n2)C1 [Example 41, 1-(8-(((5,6-dichloro-1H-benzo[d]imidazol-2-yl)methyl)amino)-3-(trifluoromethyl)imidazo[1,2-b]pyridazin-6-yl)azetidin-3-ol] | > 6.52 | 6.30 to 7.30 | < 6.00 | B (100-fold < CDK1/CDK12 or CDK2/CDK12 ≤ 500-fold) | > 7.00 |  | < 6.00 | B (100-fold < CDK1/CDK12 or CDK2/CDK12 ≤ 500-fold) | > 7.00 | 
FC(F)(F)c1cnc2c(NCc3nc4cc(Cl)c(Cl)cc4[nH]3)cc(N3CC4CCC(C3)O4)nn12 [Example 42] | 5.52 to 6.52 | 6.30 to 7.30 | < 6.00 |  |  |  | < 6.00 |  | > 7.00 | 6.30 to 7.00
N#CC1CCN(c2cc(NCc3nc4cc(Cl)c(Cl)cc4[nH]3)c3ncc(C(F)(F)F)n3n2)CC1 [Example 44, 1-(8-(((5,6-dichloro-1H-benzo[d]imidazol-2-yl)methyl)amino)-3-(trifluoromethyl)imidazo[1,2-b]pyridazin-6-yl)piperidine-4-carbonitrile] | > 6.52 | ≥ 7.30 | < 6.00 |  | 6.30 to 7.00 |  | < 6.00 |  | 6.30 to 7.00 | 
CN1CC2(C1)CN(c1cc(NCc3nc4cc(Cl)c(Cl)cc4[nH]3)c3ncc(C(F)(F)F)n3n1)C2 [Example 46, N-((5,6-dichloro-1H-benzo[d]imidazol-2-yl)methyl)-6-(6-methyl-2,6-diazaspiro[3.3]heptan-2-yl)-3-(trifluoromethyl)imidazo[1,2-b]pyridazin-8-amine] | > 6.52 | ≥ 7.30 | < 6.00 |  | > 7.00 |  | < 6.00 | B (100-fold < CDK1/CDK12 or CDK2/CDK12 ≤ 500-fold) | > 7.00 | 
O=C(CO)C1CCN(c2cc(NCc3nc4cc(Cl)c(Cl)cc4[nH]3)c3ncc(C(F)(F)F)n3n2)CC1 [Example 114, 1-(1-(8-(((5,6-dichloro-1H-benzo[d]imidazol-2-yl)methyl)amino)-3-(trifluoromethyl)imidazo[1,2-b]pyridazin-6-yl)piperidin-4-yl)-2-hydroxyethan-1-one] | > 6.52 | ≥ 7.30 |  |  | > 7.00 | > 7.00 |  |  |  | 
